Source: PubChem BioAssay AID248 (DTP/NCI, 2004)
Where “and” joins values, the source holds several entries; their conditions need not be identical. Equal entries are not always repeated. Inconclusive results and toxic doses are left out. Cut-off read from the data, not from the text of the source: active = T/C of 150% or more; inactive = T/C below 125%.

Tested on: L1210 leukemia ip in BDF1 mice, survival T/C
Test: NCI In Vivo Anticancer Drug Screen. Data for tumor model L1210 Leukemia (intraperitoneal) in B6D2F1 (BDF1) mice
Conditions: endpoint: mean survival time, higher = longer survival
Summary of the method: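 Transplantable tumor model; survival measured in treated vs vehicle control mice. Value = treated/control.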

[1] = dose: 100.0 mg/kg/injection, schedule: Q01DX009 (ip), vehicle: Klucel (hydroxypropylcellulose) (HPC)
[2] = dose: 100.0 mg/kg/injection, schedule: Q04DX003 (ip), vehicle: Klucel (hydroxypropylcellulose) (HPC)
[3] = dose: 200.0 mg/kg/injection, schedule: Q01DX009 (ip), vehicle: Klucel (hydroxypropylcellulose) (HPC)
[4] = dose: 200.0 mg/kg/injection, schedule: Q04DX003 (ip), vehicle: Klucel (hydroxypropylcellulose) (HPC)
[5] = dose: 400.0 mg/kg/injection, schedule: Q04DX003 (ip), vehicle: Klucel (hydroxypropylcellulose) (HPC)
[6] = dose: 100.0 mg/kg/injection, schedule: Q01DX001 (ip), vehicle: carboxymethylcellulose (CMC)
[7] = dose: 200.0 mg/kg/injection, schedule: Q01DX001 (ip), vehicle: carboxymethylcellulose (CMC)

Measured: T/C

c1ccc(CC2CCCCCC2)cc1
inactive: [1] 96 % of control | [2] 100 % of control | dose: 150.0 mg/kg/injection, schedule: Q01DX009 (ip), vehicle: Klucel (hydroxypropylcellulose) (HPC) 101 % of control | [3] 102 % of control | [4] 91 % of control | [5] 96 % of control

CC(=Nc1ccccc1)C1=C(O)C(Cc2ccccc2)NC1=O (stereo unspecified)
inactive: dose: 50.0 mg/kg/injection, schedule: Q01DX001 (ip), vehicle: carboxymethylcellulose (CMC) 101 % of control | [6] 103 % of control | dose: 178.0 mg/kg/injection, schedule: Q01DX001 (ip), vehicle: carboxymethylcellulose (CMC) 101 % of control and 102 % of control | [7] 120 % of control | dose: 267.0 mg/kg/injection, schedule: Q01DX001 (ip), vehicle: carboxymethylcellulose (CMC) 101 % of control and 109 % of control | dose: 400.0 mg/kg/injection, schedule: Q01DX001 (ip), vehicle: carboxymethylcellulose (CMC) 101 % of control and 117 % of control

CSc1nc(C)c(Br)c(N2CC2)n1
inactive: dose: 50.0 mg/kg/injection, schedule: Q01DX Z (ip), vehicle: methylcellulose (MC) 95 % of control

O=C(CF)N(O)c1ccc(/C=C/c2ccccc2)cc1
inactive: [6] 101 % of control | [7] 113 % of control

O=[N+]([O-])c1ccc(SNc2ccc(O)cc2)cc1[N+](=O)[O-]
inactive: [1] 101 % of control | [2] 94 % of control | [3] 100 % of control | [4] 100 % of control | dose: 400.0 mg/kg/injection, schedule: Q01DX009 (ip), vehicle: Klucel (hydroxypropylcellulose) (HPC) 105 % of control | [5] 95 % of control

CN1CCCCC1C(O)CO (stereo unspecified)
inactive: dose: 100.0 mg/kg/injection, schedule: Q04DX003 (ip), vehicle: saline 103 % of control | dose: 200.0 mg/kg/injection, schedule: Q04DX003 (ip), vehicle: saline 102 % of control | dose: 400.0 mg/kg/injection, schedule: Q04DX003 (ip), vehicle: saline 100 % of control

NNC(=O)c1ccccc1[N+](=O)[O-]
inactive: dose: 25.0 mg/kg/injection, schedule: Q01DX009 (ip), vehicle: Klucel (hydroxypropylcellulose) (HPC) 95 % of control | dose: 50.0 mg/kg/injection, schedule: Q01DX009 (ip), vehicle: Klucel (hydroxypropylcellulose) (HPC) 94 % of control | dose: 50.0 mg/kg/injection, schedule: Q04DX003 (ip), vehicle: Klucel (hydroxypropylcellulose) (HPC) 100 % of control | [1] 101 % of control | [2] 100 % of control

CNC(=O)NCCN(C)c1ccccc1
inactive: dose: 100.0 mg/kg/injection, schedule: Q04DX002 (ip), vehicle: Klucel (hydroxypropylcellulose) (HPC) 92 % of control | dose: 200.0 mg/kg/injection, schedule: Q04DX002 (ip), vehicle: Klucel (hydroxypropylcellulose) (HPC) 110 % of control | dose: 400.0 mg/kg/injection, schedule: Q04DX002 (ip), vehicle: Klucel (hydroxypropylcellulose) (HPC) 106 % of control

CCCCOC1=CC2C(=CCC3C2(C)C(=O)CC2(C)C(C(C)(O)C(=O)/C=C/C(C)(C)O)C(O)CC32C)C(C)(C)C1=O (stereo unspecified)
inactive: dose: 50.0 mg/kg/injection, schedule: Q04DX002 (ip), vehicle: saline with Tween-80 97 % of control | dose: 100.0 mg/kg/injection, schedule: Q04DX002 (ip), vehicle: saline with Tween-80 97 % of control | dose: 200.0 mg/kg/injection, schedule: Q04DX002 (ip), vehicle: saline with Tween-80 101 % of control

CC1(C)CN1C1=C(Cl)C(=O)C(N2CC2(C)C)=C(Cl)C1=O
inactive: dose: 1.56 mg/kg/injection, schedule: Q04DX003 (ip), vehicle: saline 92 % of control | dose: 3.12 mg/kg/injection, schedule: Q04DX003 (ip), vehicle: saline 96 % of control | dose: 6.25 mg/kg/injection, schedule: Q04DX003 (ip), vehicle: saline 113 % of control | dose: 12.5 mg/kg/injection, schedule: Q04DX003 (ip), vehicle: saline 101 % of control | dose: 25.0 mg/kg/injection, schedule: Q04DX003 (ip), vehicle: saline 96 % of control | dose: 50.0 mg/kg/injection, schedule: Q04DX003 (ip), vehicle: saline 92 % of control | dose: 75.0 mg/kg/injection, schedule: Q04DX003 (ip), vehicle: saline 104 % of control | dose: 115.0 mg/kg/injection, schedule: Q04DX003 (ip), vehicle: saline 104 % of control | dose: 170.0 mg/kg/injection, schedule: Q04DX003 (ip), vehicle: saline 108 % of control

CN1CCC(CO)CC1
inactive: dose: 100.0 mg/kg/injection, schedule: Q01DX001 (ip), vehicle: saline 94 % of control | dose: 200.0 mg/kg/injection, schedule: Q01DX001 (ip), vehicle: saline 100 % of control
